{"source": "paper PMC6749450", "about": "“Probing the Effects of Pyrimidine Functional Group Switches on Acyclic Fleximer Analogues for Antiviral Activity” (Molecules, 2019)", "key": {"Ebola virus (EBOV)": {"test_system": "Ebola virus (EBOV)", "assay": "microbe, parasite or virus in culture", "type": "cell-based, EBOV-Makona", "conditions": "for EC50: Zaire ebolavirus, Huh-7, 72 h, read-out: EC50: effective concentration showing 50% inhibition of virus-expressed ZsGreen fluorescence"}, "coronaviruses": {"test_system": "coronaviruses", "conditions": "cited from earlier work"}, "filoviruses": {"test_system": "filoviruses", "conditions": "cited from earlier work"}, "flaviviruses": {"test_system": "flaviviruses", "conditions": "ref unpublished results; cited from earlier work"}}, "data": [{"smiles": "COc1nc(N)ncc1-c1cn(COCCOC(C)=O)cn1", "note": "[1-Ac]", "values": [{"measurement": "activity against EBOV (in words)", "setting": "Ebola virus (EBOV)", "value": "not active against EBOV"}, {"measurement": "EC50", "setting": "Ebola virus (EBOV)", "value": "> 100", "unit": "µM"}]}, {"smiles": "CCC(=O)OCCOCn1cnc(-c2cnc(N)nc2OC)c1", "note": "[1-EtAc, 2-((4-(2-Amino-4-methoxypyrimidin-5-yl)-1H-imidazol-1-yl)methoxy)ethyl propionate]", "values": [{"measurement": "EC50", "setting": "Ebola virus (EBOV)", "value": "62.2 ± 19", "unit": "µM"}]}, {"smiles": "COc1nc(N)ncc1-c1cn(COCCOC(=O)C(C)C)cn1", "note": "[1-^iPrAc, 2-((4-(2-Amino-4-methoxypyrimidin-5-yl)-1H-imidazol-1-yl)methoxy)ethyl isobutyrate]", "values": [{"measurement": "EC50", "setting": "Ebola virus (EBOV)", "value": "> 100", "unit": "µM"}]}, {"smiles": "COc1nc(N)ncc1-c1cn(COCCOC(=O)C(C)(C)C)cn1", "note": "[1-^tBuAc, 2-((4-(2-Amino-4-methoxypyrimidin-5-yl)-1H-imidazol-1-yl)methoxy)ethyl pivalate]", "values": [{"measurement": "EC50", "setting": "Ebola virus (EBOV)", "value": "7.21 ± 1.85", "unit": "µM"}]}, {"smiles": "COc1ncc(-c2cn(COCCOC(C)=O)cn2)c(OC)n1", "note": "[2-Ac]", "values": [{"measurement": "EC50", "setting": "Ebola virus (EBOV)", "value": "16.3 ± 11.5", "unit": "µM"}]}, {"smiles": "CCC(=O)OCCOCn1cnc(-c2cnc(OC)nc2OC)c1", "note": "[2-EtAc, 2-((4-(2,4-Dimethoxypyrimidin-5-yl)-1H-imidazol-1-yl)methoxy)ethyl propionate]", "values": [{"measurement": "EC50", "setting": "Ebola virus (EBOV)", "value": "> 100", "unit": "µM"}]}, {"smiles": "COc1ncc(-c2cn(COCCOC(=O)C(C)C)cn2)c(OC)n1", "note": "[2-^iPrAc, 2-((4-(2,4-Dimethoxypyrimidin-5-yl)-1H-imidazol-1-yl)methoxy)ethyl isobutyrate]", "values": [{"measurement": "EC50", "setting": "Ebola virus (EBOV)", "value": "32 ± 9.12", "unit": "µM"}]}, {"smiles": "COc1ncc(-c2cn(COCCOC(=O)C(C)(C)C)cn2)c(OC)n1", "note": "[2-^tBuAc, 2-((4-(2,4-Dimethoxypyrimidin-5-yl)-1H-imidazol-1-yl)methoxy)ethyl pivalate]", "values": [{"measurement": "EC50", "setting": "Ebola virus (EBOV)", "value": "81.3 ± 10.2", "unit": "µM"}]}, {"smiles": "COc1ncncc1-c1cn(COCCOC(C)=O)cn1", "note": "[3-Ac, 2-((4-(4-Methoxypyrimidin-5-yl)-1H-imidazol-1-yl)methoxy)ethyl acetate]", "values": [{"measurement": "EC50", "setting": "Ebola virus (EBOV)", "value": "35.4 ± 20.4", "unit": "µM"}]}, {"smiles": "CCC(=O)OCCOCn1cnc(-c2cncnc2OC)c1", "note": "[3-EtAc, 2-((4-(4-Methoxypyrimidin-5-yl)-1H-imidazol-1-yl)methoxy)ethyl propionate]", "values": [{"measurement": "EC50", "setting": "Ebola virus (EBOV)", "value": "51.9 ± 19.6", "unit": "µM"}]}, {"smiles": "COc1ncncc1-c1cn(COCCOC(=O)C(C)C)cn1", "note": "[3-^iPrAc, 2-((4-(4-Methoxypyrimidin-5-yl)-1H-imidazol-1-yl)methoxy)ethyl isobutyrate]", "values": [{"measurement": "EC50", "setting": "Ebola virus (EBOV)", "value": "38.3 ± 28.2", "unit": "µM"}]}, {"smiles": "COc1ncncc1-c1cn(COCCOC(=O)C(C)(C)C)cn1", "note": "[3-^tBuAc, 2-((4-(4-Methoxypyrimidin-5-yl)-1H-imidazol-1-yl)methoxy)ethyl pivalate]", "values": [{"measurement": "EC50", "setting": "Ebola virus (EBOV)", "value": "51.4 ± 10", "unit": "µM"}]}, {"smiles": "CC(=O)OCCOCn1cnc(-c2cnc(N)nc2)c1", "note": "[4-Ac, 2-((4-(2-Aminopyrimidin-5-yl)-1H-imidazol-1-yl)methoxy)ethyl acetate]", "values": [{"measurement": "EC50", "setting": "Ebola virus (EBOV)", "value": "52.9 ± 28.2", "unit": "µM"}]}, {"smiles": "CCC(=O)OCCOCn1cnc(-c2cnc(N)nc2)c1", "note": "[4-EtAc, 2-((4-(2-Aminopyrimidin-5-yl)-1H-imidazol-1-yl)methoxy)ethyl propionate]", "values": [{"measurement": "EC50", "setting": "Ebola virus (EBOV)", "value": "> 100", "unit": "µM"}]}, {"smiles": "CC(C)C(=O)OCCOCn1cnc(-c2cnc(N)nc2)c1", "note": "[4-^iPrAc, 2-((4-(2-Aminopyrimidin-5-yl)-1H-imidazol-1-yl)methoxy)ethyl isobutyrate]", "values": [{"measurement": "EC50", "setting": "Ebola virus (EBOV)", "value": "54 ± 23.7", "unit": "µM"}]}, {"smiles": "CC(C)(C)C(=O)OCCOCn1cnc(-c2cnc(N)nc2)c1", "note": "[4-^tBuAc, 2-((4-(2-Aminopyrimidin-5-yl)-1H-imidazol-1-yl)methoxy)ethyl pivalate]", "values": [{"measurement": "EC50", "setting": "Ebola virus (EBOV)", "value": "34.4 ± 20", "unit": "µM"}]}, {"smiles": "CC(=O)OCCOCn1cnc(-c2cncnc2N)c1", "note": "[5-Ac, 2-((4-(4-Aminopyrimidin-5-yl)-1H-imidazol-1-yl)methoxy)ethyl acetate]", "values": [{"measurement": "EC50", "setting": "Ebola virus (EBOV)", "value": "> 100", "unit": "µM"}]}, {"smiles": "CCC(=O)OCCOCn1cnc(-c2cncnc2N)c1", "note": "[5-EtAc, 2-((4-(4-Aminopyrimidin-5-yl)-1H-imidazol-1-yl)methoxy)ethyl propionate]", "values": [{"measurement": "EC50", "setting": "Ebola virus (EBOV)", "value": "> 100", "unit": "µM"}]}, {"smiles": "CC(C)C(=O)OCCOCn1cnc(-c2cncnc2N)c1", "note": "[5-^iPrAc, 2-((4-(4-Aminopyrimidin-5-yl)-1H-imidazol-1-yl)methoxy)ethyl isobutyrate]", "values": [{"measurement": "EC50", "setting": "Ebola virus (EBOV)", "value": "> 100", "unit": "µM"}]}, {"smiles": "CC(C)(C)C(=O)OCCOCn1cnc(-c2cncnc2N)c1", "note": "[5-^tBuAc, 2-((4-(4-Aminopyrimidin-5-yl)-1H-imidazol-1-yl)methoxy)ethyl pivalate]", "values": [{"measurement": "EC50", "setting": "Ebola virus (EBOV)", "value": "72.3 ± 18.7", "unit": "µM"}]}, {"smiles": "COc1nc(N)ncc1-c1cn(COCCO)cn1", "note": "[compound 1]", "values": [{"measurement": "EC50", "setting": "Ebola virus (EBOV)", "value": "1.49 ± 0.98", "unit": "µM"}, {"measurement": "antiviral activity against coronaviruses", "setting": "coronaviruses", "value": "low micromolar activity"}, {"measurement": "antiviral activity against filoviruses", "setting": "filoviruses", "value": "low micromolar activity"}, {"measurement": "antiviral activity against flaviviruses", "setting": "flaviviruses", "value": "low micromolar activity"}]}, {"smiles": "COc1ncc(-c2cn(COCCO)cn2)c(OC)n1", "note": "[compound 2]", "values": [{"measurement": "EC50", "setting": "Ebola virus (EBOV)", "value": "23.4 ± 20.3", "unit": "µM"}]}, {"smiles": "COc1ncncc1-c1cn(COCCO)cn1", "note": "[compound 3, 2-((4-(4-Methoxypyrimidin-5-yl)-1H-imidazol-1-yl)methoxy)ethan-1-ol]", "values": [{"measurement": "EC50", "setting": "Ebola virus (EBOV)", "value": "78.9 ± 17.1", "unit": "µM"}]}, {"smiles": "Nc1ncc(-c2cn(COCCO)cn2)cn1", "note": "[compound 4, 2-((4-(2-Aminopyrimidin-5-yl)-1H-imidazol-1-yl)methoxy)ethan-1-ol]", "values": [{"measurement": "activity against EBOV (in words)", "setting": "Ebola virus (EBOV)", "value": "did not display any activity against EBOV"}, {"measurement": "EC50", "setting": "Ebola virus (EBOV)", "value": "> 100", "unit": "µM"}]}, {"smiles": "Nc1ncncc1-c1cn(COCCO)cn1", "note": "[compound 5, 2-((4-(4-Aminopyrimidin-5-yl)-1H-imidazol-1-yl)methoxy)ethan-1-ol]", "values": [{"measurement": "activity against EBOV (in words)", "setting": "Ebola virus (EBOV)", "value": "did not display any activity against EBOV"}, {"measurement": "EC50", "setting": "Ebola virus (EBOV)", "value": "> 100", "unit": "µM"}]}]}
